# Measurements from patent publication US20110300222A1, “LUMINESCENT POROUS SILICON NANOPARTICLES, METHODS OF MAKING AND USING SAME” (THE REGENTS OF THE UNIVERSITY OF CALIFORNIA, priority 2009, published 2011).
# Legend:
# [1] = in ethanol; cited from earlier work
# [2] = 25° C.; cited from earlier work
# [3] = In vivo toxicity (body mass, histology of kidney, liver, spleen); set-up: species or system mouse; conditions: mice n=3, 2 mgDOX/kg i.v., period of 3 weeks
# Protocol: In vivo degradation, toxicity, and circulation. All animal work was performed in accordance with the institutional animal protocol guidelines in place at the Burnham Institute for Medical Research, and it was reviewed and approved by the Institute's Animal Research Committee. […] For in vivo degradation studies, the mice were sacrificed 1 day, 1 week and 4 weeks after injection, and the brain, heart, kidney, liver, lung, and spleen were collected. The tissues were weighed, digested, and then analyzed for silicon content using ICP-OES. For the in vivo toxicity studies, the mass of each mouse was monitored for 4 weeks after injection and compared with control mice (PBS-injected). The sections of kidney, liver, and spleen tissues harvested from the mice 1 day and 4 weeks after injection were stained with haematoxylin and eosin and then examined by a pathologist.
# To examine preliminary in vivo toxicity, body mass of the mice was monitored every 3 days over a period of 3 weeks.
# [4] = Biodistribution of DOX in mouse organs (DOX fluorescence); format: in vivo; conditions: mice n=3, 24 h after single i.v. injection, 2 mgDOX/kg
# Protocol: To determine biodistribution of free DOX and DOX-LPSiNP in mouse, the organs (liver, spleen, kidney, lung, heart, and brain) were collected 24 h after injection, weighed, homogenized in 1.5 mL of 0.3 M HCl 70% ethanol solution, and further incubated in the same solution overnight to extract DOX molecules from the organs and DOX-LPSiNP. The homogenized solution was spun down at 10,000 rpm for 10 min and the supernatant was only used to measure the DOX fluorescence. The DOX fluorescence (λex=480nm and λem=590 nm) in each tissue was quantified as % injected dose (% ID) per gram of wet tissue.
smiles,measurement,setting,value
O=C(O)c1ccccc1C1=c2cc3c4c(c2Oc2c1cc1c5c2CCCN5CCC1)CCC[N+]=4CCC3.[Cl-] [Rhodamine 101],quantum yield of standard,[1],100%
OB(O)O [boric acid],pKa,[2],9.14
"COc1cccc2c1C(=O)c1c(O)c3c(c(O)c1C2=O)C[C@@](O)(C(=O)CO)C[C@@H]3O[C@H]1C[C@H](N)[C@H](O)[C@H](C)O1 [free DOX, doxorubicin]",body mass (weight) change vs PBS control,[3],no statistically significant difference
same,biodistribution of DOX,[4],"accumulated in kidney, lung, and heart"
